These results are taken from US11053213B2, “Pharmaceutical compounds” (ALMAC DISCOVERY LIMITED, priority 2016, dated 2021).

pIC50: −log10 of the molar value.

Sequence of USP19 (O94966 whole entry): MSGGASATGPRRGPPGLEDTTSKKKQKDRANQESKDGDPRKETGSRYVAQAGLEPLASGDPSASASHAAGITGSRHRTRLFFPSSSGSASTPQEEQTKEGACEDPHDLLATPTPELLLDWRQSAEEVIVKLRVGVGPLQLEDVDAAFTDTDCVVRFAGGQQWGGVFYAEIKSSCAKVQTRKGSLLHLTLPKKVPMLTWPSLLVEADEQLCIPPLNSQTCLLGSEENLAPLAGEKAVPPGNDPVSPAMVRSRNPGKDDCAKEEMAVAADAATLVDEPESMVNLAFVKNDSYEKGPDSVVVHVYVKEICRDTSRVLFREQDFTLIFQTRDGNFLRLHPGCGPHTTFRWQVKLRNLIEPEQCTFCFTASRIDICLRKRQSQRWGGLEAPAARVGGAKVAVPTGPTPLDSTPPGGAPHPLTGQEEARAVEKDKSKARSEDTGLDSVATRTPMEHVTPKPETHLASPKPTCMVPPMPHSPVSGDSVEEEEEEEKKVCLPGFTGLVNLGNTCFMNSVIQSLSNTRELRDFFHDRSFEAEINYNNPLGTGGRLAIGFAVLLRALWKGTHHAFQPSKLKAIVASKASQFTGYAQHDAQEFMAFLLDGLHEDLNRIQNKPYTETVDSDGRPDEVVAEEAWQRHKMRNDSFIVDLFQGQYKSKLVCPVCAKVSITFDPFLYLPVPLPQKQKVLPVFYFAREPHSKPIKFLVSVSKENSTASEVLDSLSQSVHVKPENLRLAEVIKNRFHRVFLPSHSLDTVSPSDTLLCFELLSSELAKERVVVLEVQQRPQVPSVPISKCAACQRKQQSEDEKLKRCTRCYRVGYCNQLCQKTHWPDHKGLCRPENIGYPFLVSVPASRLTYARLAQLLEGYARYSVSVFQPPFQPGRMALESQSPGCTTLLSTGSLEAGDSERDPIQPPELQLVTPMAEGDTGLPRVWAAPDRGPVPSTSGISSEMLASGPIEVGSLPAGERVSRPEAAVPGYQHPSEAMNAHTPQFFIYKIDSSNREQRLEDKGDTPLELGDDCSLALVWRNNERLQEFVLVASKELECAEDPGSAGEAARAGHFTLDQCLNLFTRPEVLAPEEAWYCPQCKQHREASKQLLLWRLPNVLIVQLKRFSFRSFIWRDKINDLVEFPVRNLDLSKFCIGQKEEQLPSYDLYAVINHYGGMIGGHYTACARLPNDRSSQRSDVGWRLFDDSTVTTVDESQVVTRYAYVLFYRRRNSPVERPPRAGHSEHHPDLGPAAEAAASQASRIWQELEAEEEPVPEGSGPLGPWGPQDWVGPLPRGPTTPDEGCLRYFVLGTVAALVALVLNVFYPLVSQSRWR

One test concerns the target USP19 (Homo sapiens (Human), UniProt O94966). Description: USP19 activity assay (fluorescence polarisation, Ubiquitin-Lys-TAMRA substrate). In kind it is biochemical. The settings on record: full-length USP19 2.5 nM, 30 min pre-incubation, Ub substrate 500 nM; average of at least two duplicate experiments.
As for `C[C@H](CC1CCCCC1)C(=O)N1CC[C@@](O)(Cn2cc(C(=O)N3CCNCC3)c(-c3ccccc3)cc2=O)C(C)(C)C1` [Example 124, 1-(((S)-1-((R)-3-Cyclohexyl-2-methylpropanoyl)-4-hydroxy-3,3-dimethylpiperidin-4-yl)methyl)-4-phenyl-5-(piperazine-1-carbonyl)pyridin-2(1H)-one], the pIC50 (as a rule, the IC50 on a negative log10 scale, so that one unit is a factor of ten) is over 6.30.

As for `C[C@H](CC1CCCCC1)C(=O)N1CCC(O)(Cn2cc(C(=O)O)c(-c3ccccc3)cc2=O)C(C)(C)C1` (stereo partly drawn) [Example 241, 1-((1-((R)-3-Cyclohexyl-2-methylpropanoyl)-4-hydroxy-3,3-dimethylpiperidin-4-yl)methyl)-6-oxo-4-phenyl-1,6-dihydropyridine-3-carboxylic acid], the pIC50 was 5.30 to 6.30.

Regarding `COc1cc(=O)n(CC2(O)CCN(C(=O)[C@H](C)CC3CCCCC3)CC23CCCC3)cc1C(=O)N(C)C` (stereo partly drawn) [Example 242, 1-((7-((R)-3-Cyclohexyl-2-methylpropanoyl)-10-hydroxy-7-azaspiro[4.5]decan-10-yl)methyl)-4-methoxy-N,N-dimethyl-6-oxo-1,6-dihydropyridine-3-carboxamide], the pIC50 is 5.30 to 6.30.

Regarding `CC(CC(F)F)C(=O)N1CCC(O)(Cn2cc(C(=O)N(C)C)c(-c3ccccc3)cc2=O)C2(CCCC2)C1` (stereo not drawn) [Example 243, 1-((7-(4,4-Difluoro-2-methylbutanoyl)-10-hydroxy-7-azaspiro[4.5]decan-10-yl)methyl)-N,N-dimethyl-6-oxo-4-phenyl-1,6-dihydropyridine-3-carboxamide], the pIC50 is 4.30 to 5.30.

Take `CN(C)C(=O)c1cn(CC2(O)CCN(C(=O)C(C)(C)CC(F)F)CC23CCCC3)c(=O)cc1-c1ccccc1` (stereo not drawn) [Example 244, 1-((7-(4,4-Difluoro-2,2-dimethylbutanoyl)-10-hydroxy-7-azaspiro[4.5]decan-10-yl)methyl)-N,N-dimethyl-6-oxo-4-phenyl-1,6-dihydropyridine-3-carboxamide]: the pIC50 was 4.30 to 5.30.

For the compound `CN(C)C(=O)c1cn(CC2(O)CCN(C(=O)c3nc(C(F)(F)F)cs3)CC23CCCC3)c(=O)cc1-c1ccccc1` (stereo not drawn) [Example 245, 1-((10-Hydroxy-7-(4-(trifluoromethyl)thiazole-2-carbonyl)-7-azaspiro[4.5]decan-10-yl)methyl)-N,N-dimethyl-6-oxo-4-phenyl-1,6-dihydropyridine-3-carboxamide], the pIC50 was 4.30 to 5.30.

Turning to `CN(C)C(=O)c1cn(CC2(O)CCN(C(=O)c3csc(C(F)(F)F)n3)CC23CCCC3)c(=O)cc1-c1ccccc1` (stereo not drawn) [Example 246, 1-((10-Hydroxy-7-(2-(trifluoromethyl)thiazole-4-carbonyl)-7-azaspiro[4.5]decan-10-yl)methyl)-N,N-dimethyl-6-oxo-4-phenyl-1,6-dihydropyridine-3-carboxamide], the pIC50 is 4.30 to 5.30.

On to `CN(C)C(=O)c1cn(C[C@]2(O)CCN(C(=O)[C@H](CO)CC(F)(F)F)CC23CCCC3)c(=O)cc1-c1ccccc1` [Example 247, 1-(((S)-10-Hydroxy-7-((S)-4,4,4-trifluoro-2-(hydroxymethyl)butanoyl)-7-azaspiro[4.5]decan-10-yl)methyl)-N,N-dimethyl-6-oxo-4-phenyl-1,6-dihydropyridine-3-carboxamide], for which the pIC50 was over 6.30.

`O=C(c1cn(C[C@]2(O)CCN(C(=O)[C@H](CO)CC(F)(F)F)CC23CCCC3)c(=O)cc1-c1ccccc1)N1CCOCC1` [Example 248, 1-(((S)-10-Hydroxy-7-((S)-4,4,4-trifluoro-2-(hydroxymethyl)butanoyl)-7-azaspiro[4.5]decan-10-yl)methyl)-5-(morpholine-4-carbonyl)-4-phenylpyridin-2(1H)-one]: the pIC50 is over 6.30.

`O=C(c1cn(C[C@]2(O)CCN(C(=O)[C@H](CO)CC(F)(F)F)CC23CCCC3)c(=O)cc1-c1ccccc1)N1CCNCC1` [Example 249, 1-(((S)-10-Hydroxy-7-((S)-4,4,4-trifluoro-2-(hydroxymethyl)butanoyl)-7-azaspiro[4.5]decan-10-yl)methyl)-4-phenyl-5-(piperazine-1-carbonyl)pyridin-2(1H)-one]: the pIC50 was over 6.30.

Regarding `C[C@H](CC(F)(F)F)C(=O)N1CC[C@@](O)(Cn2cc(C(=O)N3CCOCC3)c(-c3ccccc3)cc2=O)C2(CCCC2)C1` [Example 250, 1-(((S)-10-Hydroxy-7-((R)-4,4,4-trifluoro-2-methylbutanoyl)-7-azaspiro[4.5]decan-10-yl)methyl)-5-(morpholine-4-carbonyl)-4-phenylpyridin-2(1H)-one], the pIC50 is over 6.30.

Take `C[C@H](CC(F)(F)F)C(=O)N1CC[C@@](O)(Cn2cc(C(=O)N3CCN(C)CC3)c(-c3ccccc3)cc2=O)C2(CCCC2)C1` [Example 251, 1-(((S)-10-Hydroxy-7-((R)-4,4,4-trifluoro-2-methylbutanoyl)-7-azaspiro[4.5]decan-10-yl)methyl)-5-(4-methylpiperazine-1-carbonyl)-4-phenylpyridin-2(1H)-one]: the pIC50 is over 6.30.

On to `CCOC(=O)c1cn(C[C@]2(O)CCN(C(=O)[C@H](C)CC3CCCCC3)CC23CCCC3)c(=O)cc1-c1ccccc1` [Example 252, Ethyl 1-(((S)-7-((R)-3-cyclohexyl-2-methylpropanoyl)-10-hydroxy-7-azaspiro[4.5]decan-10-yl)methyl)-6-oxo-4-phenyl-1,6-dihydropyridine-3-carboxylate], for which the pIC50 is over 6.30.

In the case of `C[C@H](CC1CCCCC1)C(=O)N1CC[C@@](O)(Cn2cc(C(=O)O)c(-c3ccccc3)cc2=O)C2(CCCC2)C1` [Example 253, 1-(((S)-7-((R)-3-Cyclohexyl-2-methylpropanoyl)-10-hydroxy-7-azaspiro[4.5]decan-10-yl)methyl)-6-oxo-4-phenyl-1,6-dihydropyridine-3-carboxylic acid], the pIC50 was over 6.30.

The next test deals with panel of DUBs (24 USPs and 19 other DUBs). Description: Selectivity profile against a panel of DUBs (Ub-Rh110 substrate, Ubiquigent). The settings on record: fixed concentration of 100 μM. Type of test: biochemical. How it is done:
FIG. 1 Overall selectivity profile of Example 124 against a panel of DUBs. Included in this screen were 24 USPs and 19 other DUBs (as indicated). Example 124 was screened at a fixed concentration of 100 μM using the Ub-Rh110 substrate (Ubiquigent). Residual activity is shown on the y-axis normalised to the no compound (DMSO) control.
As to `C[C@H](CC1CCCCC1)C(=O)N1CC[C@@](O)(Cn2cc(C(=O)N3CCNCC3)c(-c3ccccc3)cc2=O)C(C)(C)C1` [Example 124, 1-(((S)-1-((R)-3-Cyclohexyl-2-methylpropanoyl)-4-hydroxy-3,3-dimethylpiperidin-4-yl)methyl)-4-phenyl-5-(piperazine-1-carbonyl)pyridin-2(1H)-one], the “Overall selectivity profile (residual activity normalised to DMSO control)” value is listed as “selectivity is demonstrated”.
